The values that follow come from the NIST ThermoML archive (doi:10.1021/acs.jced.8b01209).

A short description of series [1]: Molar enthalpy of transition or fusion. The note with it: Crystal; DSC.
For series [2] the following is noted: Crystal; DSC.

± gives the expanded uncertainty stated by the source.

For the compound `Cc1ccc2cc(C)ccc2c1` [2,6-dimethylnaphthalene], the “Molar enthalpy of transition or fusion” value in series [1] came out at 5.95 ± 0.136 kcal/mol. In series [2], the Triple point temperature was 384.41 ± 1.2 K.
